Assay results as given in US6552054B1, “Chromone derivatives, process for the preparation of the same and uses thereof” (Takeda Chemical Industries, Ltd., priority 1999, dated 2003).

Test system: stromal cells prepared from the femur bone marrow of a normal rat
Experiment: Osteogenesis promoting effect: alkaline phosphatase activity in cultured bone marrow stromal cells
Type: cell-based, rat (Sprague-Dawley)
Conditions: test compound 10^−5 M added from 2nd day of culture, cultured additional 5 days, mean ± S.E. (n = 4)
Method: Osteogenesis promoting effect:
Using the stromal cells prepared from the femur bone marrow of a normal rat, an alkaline phosphatase activity was measured as an index of osteogenesis. Briefly, according to the method of Maniatopoulos et al. [Cell Tissue Research, volume 254, p.317 ([…])], the stromal cells were prepared from the femur bone of a Sprague-Dawley male rat, 7 weeks of age, and cultured in an α-MEM (minimum essential medium) solution containing dexamethasone (10^−7M) and β-glycerophosphoric acid (10^−2M) in order to generate calcified bony tissue. One week later, the confluent primary cells were treated with 0.25% trypsin-0.25% EDTA solution, recovered, and subclutured on a culture plate at a cell density of […], (cultured day 0). From the 2nd day of the culture, a test compound (10^−5M) was added to the above culture medium, and cultured for an additional 5 days. The cells were washed with a phosphate buffer, and after addition of 0.2% Nonidet P-40, they were homogenized and centrifuged at 3000 rpm for 10 minutes. The supernatant was measured for an alkaline phosphatase activity according to the method of Lowry et al. [Journal of Biological Chemistry, volume 207, p.19 (1954)]. Tables 1 and 2 show the measured values in terms of mean±standard error (SE). Statistical analysis was performed by means of the Student's t-test.

[1] = Table 1, control (no addition) 0.175 ± 0.009
[2] = Table 2, control (no addition) 0.180 ± 0.008

For `O=C1NC(=O)C(Cc2ccc(NC(=O)c3cc(=O)c4ccccc4o3)cc2)S1` (centres unmarked) [Example no. 1, N-[4-[(2,4-dioxo-1,3-thiazolidin-5-yl)methyl]phenyl]-4-oxo-4H-1-benzopyran-2-carboxamide], the “Alkaline phosphatase activity (A405)” value [1] was 0.564 ± 0.041 A405.

`O=C1NC(=O)C(Cc2ccc(NC(=O)c3cc(=O)c4ccccc4o3)cc2)O1` (centres unmarked) [Example no. 2, N-[4-[(2,4-dioxo-1,3-oxazolidin-5-yl)methyl]phenyl]-4-oxo-4H-1-benzopyran-2-carboxamide] was tested, and the “Alkaline phosphatase activity (A405)” value [1] was 0.310 ± 0.008 A405.

With `O=C(Nc1ccc(CN2CCOCC2)cc1)c1cc(=O)c2ccccc2o1` [Example no. 5, N-[4-[(4-morpholinyl)methyl]phenyl]-4-oxo-4H-1-benzopyran-2-carboxamide] the “Alkaline phosphatase activity (A405)” value [1] was 0.558 ± 0.040 A405.

With `O=C1NC(=O)C(Cc2ccc(NC(=O)c3cc(=O)c4c(O)cccc4o3)cc2)S1` (centres unmarked) [Example no. 16, N-[4-[(2,4-dioxo-1,3-thiazolidin-5-yl)methyl]phenyl]-5-hydroxy-4-oxo-4H-1-benzopyran-2-carboxamide] the “Alkaline phosphatase activity (A405)” value [2] was 0.720 ± 0.033 A405.

For `O=C1NC(=O)C(Cc2ccc(NC(=O)c3cc(=O)c4c(O)cc(O)cc4o3)cc2)S1` (centres unmarked) [Example no. 18], the “Alkaline phosphatase activity (A405)” value [2] was 0.720 ± 0.037 A405.
